In US5536723A, “S-nitroso derivatives of hydrazinoacetic acids, 1-[(acylthio and (mercapto)-1-oxoalkyl]-1,2,34-Tetrahydroquinoline-2-carboxylic acids and alanyl prolines and isoquinolines” (Brigham & Women's Hospital, priority 1994, dated 1996):

What was measured:
[1] = tested on: bovine coronary artery; assay: relaxation of isolated bovine coronary artery rings contracted with potassium chloride; details: 40 mM
From the text: FIG. 5 depicts a graph showing the relaxation to sodium nitroprusside in the bovine coronary artery in the presence (o; n=7) or absence (; n:12) of a subthreshhold dose of S-nitrosocaptopril. The data are expressed as a percentage of the initial tension generated by potassium chloride (4×10^-2 M; coronary arteries) and are shown as mean ±SEM in each group.
(§1) Blood Vessel Preparation. Bovine coronary or femoral arteries were obtained from an abattoir immediately after sacrifice of two- to four-week-old calves. Immediately after removal, the vessel was placed in ice-cold physiologic salt solution (PSS) containing 118.3 mM NaCl, 4.7 mM KCl, 2.5 mM CaCl2, 1.2 mM MgSO4, 1.2 mM KH2 PO4, 25.0 mM NaHCO3, 11.1 mM glucose, and 0.026 mM calcium disodium (ethylenedinitrilo)-tetraacetate. The vessels were then cleaned of adventitial tissue and cut into rings of approximately 5 mm lengths. When called for by the protocol, endothelium was removed from a ring by gently rubbing the luminal surface with a watchmaker's forceps. Vascular rings with intact endothelium were then suspended in organ chambers containing 25 ml of PSS at 37° aerated with 95% O2 -5% CO2. The rings were connected to force transducers (Grass FT03C, Quincy, Mass.) and changes in isometric force recorded continuously (Grass Polygraph Model 79B) over a period of 90 minutes. The optimal length-tension relationship was determined for each ring by observing the response to 10^-6 M norepinephrine after increments in tension of 0.5 gm. The functional integrity of the endothelium was assessed by contracting the vessel with 10^-6 M norepinephrine and then observing the response to 3×10^-7 M acetylcholine chloride.
Thus, to study vasodilating agents in this tissue the vessels were first contracted with potassium chloride (40 mM). Relaxations are expressed as a percent of the concentration to 40 mM potassium chloride.
Relaxations to S-nitrosocaptopril were inhibited by the antagonist of soluble guanylate cyclase, methylene blue (FIG. 4). Sodium nitroprusside induced dose-dependent relaxations of contractions to potassium chloride. The relaxation to sodium nitroprusside was inhibited by subthreshold doses of S-nitrosocaptopril (FIG. 5).

[2] = tested on: bovine femoral artery, contraction to angiotensin II; assay: contraction of the bovine femoral artery to angiotensin II; details: for Contraction to Agonist: Angiotensin II
Method: The data are expressed as a percentage of the maximal response to norepinephrine (10^-4 M) and are shown as mean ±SEM in each group (n=6).
as §1

[3] = tested on: bovine femoral artery, contraction to angiotensin I; assay: contraction of the bovine femoral artery to angiotensin I; details: for Contraction to Agonist: Angiotensin I
Method: The data are expressed as a percentage of the maximal response to norepinephrine (10^-6 M) and are shown as mean ±SEM in each group (n=7).
as §1

[4] = -Log M 6, Sar 10^-7 M, * p < 0.05
[5] = -Log M 6.5, Sar 10^-7 M, * p < 0.05
[6] = -Log M 7, Sar 10^-7 M, * p < 0.05
[7] = -Log M 7.5, Sar 10^-7 M, * p < 0.05
[8] = -Log M 8, Sar 10^-7 M, * p < 0.05
[9] = saralasin, lower concentrations than 10^-8 M

## [Cl-].[K+] [potassium chloride]
[1]
  stable contraction induced by potassium chloride: 7.3 ± 4.3 g

## CNCC(=O)N[C@@H](CCCN=C(N)N)C(=O)N[C@H](C(=O)N[C@@H](Cc1ccc(O)cc1)C(=O)N[C@H](C(=O)N[C@@H](Cc1cnc[nH]1)C(=O)N1CCC[C@H]1C(=O)N[C@@H](C)C(=O)O)C(C)C)C(C)C [saralasin]
[2]; [4]
  Contraction to Agonist: 6.0 percentage of the maximal cont
[2]; -Log M 6, Sar 10^-8 M
  Contraction to Agonist: 32.8 ± 21.0 percentage of the maximal cont
[2]; -Log M 6, Sar 10^-9 M
  Contraction to Agonist: 51.8 ± 18.8 percentage of the maximal cont
[2]; [5]
  Contraction to Agonist: 9.2 ± 5.3 percentage of the maximal cont
[2]; -Log M 6.5, Sar 10^-8 M
  Contraction to Agonist: 32.8 ± 20.4 percentage of the maximal cont
[2]; -Log M 6.5, Sar 10^-9 M
  Contraction to Agonist: 51.8 ± 18.8 percentage of the maximal cont
[2]; [6]
  Contraction to Agonist: 3.2 ± 1.8 percentage of the maximal cont
[2]; -Log M 7, Sar 10^-8 M
  Contraction to Agonist: 32.4 ± 17.3 percentage of the maximal cont
[2]; -Log M 7, Sar 10^-9 M
  Contraction to Agonist: 51.8 ± 18.8 percentage of the maximal cont
[2]; [7]
  Contraction to Agonist: 2.8 ± 2.8 percentage of the maximal cont
[2]; -Log M 7.5, Sar 10^-8 M
  Contraction to Agonist: 24.0 ± 13.8 percentage of the maximal cont
[2]; -Log M 7.5, Sar 10^-9 M
  Contraction to Agonist: 43.4 ± 16.9 percentage of the maximal cont
[2]; [8]
  Contraction to Agonist: 1.7 ± 1.7 percentage of the maximal cont
[2]; -Log M 8, Sar 10^-8 M
  Contraction to Agonist: 10.7 ± 8.1 percentage of the maximal cont
[2]; -Log M 8, Sar 10^-9 M
  Contraction to Agonist: 34.0 ± 12.9 percentage of the maximal cont
[2]; -Log M 8.5, Sar 10^-7 M
  Contraction to Agonist: 0 percentage of the maximal cont
[2]; -Log M 8.5, Sar 10^-8 M
  Contraction to Agonist: 0.9 ± 0.9 percentage of the maximal cont
[2]; -Log M 8.5, Sar 10^-9 M
  Contraction to Agonist: 18.5 ± 9.6 percentage of the maximal cont
[2]; -Log M 9, Sar 10^-7 M
  Contraction to Agonist: 0 percentage of the maximal cont
[2]; -Log M 9, Sar 10^-8 M
  Contraction to Agonist: 0 percentage of the maximal cont
[2]; -Log M 9, Sar 10^-9 M
  Contraction to Agonist: 2.4 ± 1.2 percentage of the maximal cont
[2]; saralasin 10^-7 M
  effect of saralasin on contractions to angiotensin II (in words): attenuated contractions
[2]; [9]
  effect of saralasin on contractions to angiotensin II (in words): no effect
[3]; [4]
  Contraction to Agonist: 0.9 ± 0.9 percentage of the maximal cont
[3]; -Log M 6, Sar 10^-8 M
  Contraction to Agonist: 35.5 ± 7.0 percentage of the maximal cont
[3]; -Log M 6, Sar 10^-9 M
  Contraction to Agonist: 25.6 ± 13.0 percentage of the maximal cont
[3]; [5]
  Contraction to Agonist: 0 percentage of the maximal cont
[3]; -Log M 6.5, Sar 10^-8 M
  Contraction to Agonist: 35.7 ± 22.1 percentage of the maximal cont
[3]; -Log M 6.5, Sar 10^-9 M
  Contraction to Agonist: 31.4 ± 10.7 percentage of the maximal cont
[3]; [6]
  Contraction to Agonist: 0 percentage of the maximal cont
[3]; -Log M 7, Sar 10^-8 M, * p < 0.05
  Contraction to Agonist: 19.6 ± 7.0 percentage of the maximal cont
[3]; -Log M 7, Sar 10^-9 M
  Contraction to Agonist: 33.0 ± 12.6 percentage of the maximal cont
[3]; [7]
  Contraction to Agonist: 0 percentage of the maximal cont
[3]; -Log M 7.5, Sar 10^-8 M, * p < 0.05
  Contraction to Agonist: 16.3 ± 9.4 percentage of the maximal cont
[3]; -Log M 7.5, Sar 10^-9 M
  Contraction to Agonist: 22.6 ± 10.1 percentage of the maximal cont
[3]; [8]
  Contraction to Agonist: 0 percentage of the maximal cont
[3]; -Log M 8, Sar 10^-8 M
  Contraction to Agonist: 7.9 ± 7.9 percentage of the maximal cont
[3]; -Log M 8, Sar 10^-9 M
  Contraction to Agonist: 3.9 ± 1.5 percentage of the maximal cont
[3]; -Log M 8.5, Sar 10^-7 M
  Contraction to Agonist: 0 percentage of the maximal cont
[3]; -Log M 8.5, Sar 10^-8 M
  Contraction to Agonist: 1.6 ± 1.6 percentage of the maximal cont
[3]; -Log M 8.5, Sar 10^-9 M
  Contraction to Agonist: 0 percentage of the maximal cont
[3]; -Log M 9, Sar 10^-7 M
  Contraction to Agonist: 0 percentage of the maximal cont
[3]; -Log M 9, Sar 10^-8 M
  Contraction to Agonist: 0 percentage of the maximal cont
[3]; -Log M 9, Sar 10^-9 M
  Contraction to Agonist: 0 percentage of the maximal cont
[3]; saralasin 10^-7 M
  effect of saralasin on contractions to angiotensin I (in words): attenuated contractions
[3]; saralasin 10^-8 M
  effect of saralasin on contractions to angiotensin I (in words): inhibited contractions to angiotensin I
[3]; [9]
  effect of saralasin on contractions to angiotensin I (in words): no effect

## angiotensin I: agonist; converted by ACE to angiotensin II by removal of the carboxy terminal His-Leu (DRVYIHPFHL; Angiotensin-1; UniProt P01019 25-34, looked up)
[3]; -Log M 6, Sar 0 (control)
  Contraction to Agonist: 45.3 ± 13.5 percentage of the maximal cont
[3]; -Log M 6.5, Sar 0 (control)
  Contraction to Agonist: 42.5 ± 13.4 percentage of the maximal cont
[3]; -Log M 7, Sar 0 (control)
  Contraction to Agonist: 38.6 ± 15.9 percentage of the maximal cont
[3]; -Log M 7.5, Sar 0 (control)
  Contraction to Agonist: 27.7 ± 12.7 percentage of the maximal cont
[3]; -Log M 8, Sar 0 (control)
  Contraction to Agonist: 12.6 ± 11.4 percentage of the maximal cont
[3]; -Log M 8.5, Sar 0 (control)
  Contraction to Agonist: 3.3 ± 5.9 percentage of the maximal cont
[3]; -Log M 9, Sar 0 (control)
  Contraction to Agonist: 0 percentage of the maximal cont
[3]; n=11
  maximum contraction response to angiotensin I: 4.4 ± 1.6 g

## angiotensin II: powerful pressor agent; agonist (DRVYIHPF; Angiotensin-2; UniProt P01019 25-32, looked up)
[2]; -Log M 6, Sar 0 (control)
  Contraction to Agonist: 57.9 ± 3.1 percentage of the maximal cont
[2]; -Log M 6.5, Sar 0 (control)
  Contraction to Agonist: 57.1 ± 3.1 percentage of the maximal cont
[2]; -Log M 7, Sar 0 (control)
  Contraction to Agonist: 47.2 ± 2.9 percentage of the maximal cont
[2]; -Log M 7.5, Sar 0 (control)
  Contraction to Agonist: 40.3 ± 2.6 percentage of the maximal cont
[2]; -Log M 8, Sar 0 (control)
  Contraction to Agonist: 28.8 ± 1.7 percentage of the maximal cont
[2]; -Log M 8.5, Sar 0 (control)
  Contraction to Agonist: 11.8 ± 1.1 percentage of the maximal cont
[2]; -Log M 9, Sar 0 (control)
  Contraction to Agonist: 0 percentage of the maximal cont
[2]; n=6
  maximum contraction response to angiotensin II: 6.4 ± 2.5 g
[2]; n=6, read-out: average ED50 of contraction to angiotensin II
  EC50: 8.3 nM
[2]; without S-nitrosocaptopril, n=5
  maximum response to angiotensin II: 55.8±6.9 % of the maximal response to norepinephrine
